Our source for the inhibition values is US5227395A, “Anti-platelet aggregating agent” (Nisshin Flour Milling Co., Ltd., priority 1991, dated 1993).

The term inhibition denotes how much of the control response was suppressed.

The test system of this assay is platelet aggregation. Kind of assay: In vitro anti-platelet test: inhibition of arachidonic acid-induced platelet aggregation in platelet-rich plasma (Born's turbidimetric method). Particulars: Oryctolagus cuniculus, 5 min, rabbit PRP, 37° C., read-out: Percentage inhibition of platelet aggregation; for inhibition at 10 µg/mL: 10 μg/ml; for inhibition at 25 µg/mL: 25 μg/ml; for inhibition at 50 µg/mL: 50 μg/ml; for inhibition at 100 µg/mL: 100 μg/ml. The assay is classed as cell-based, male Japanese white rabbits. How it is done:
The anti-platelet aggregating activity of the compounds of the present invention was determined by Born's turbidimetric method (G.V.R. Born, Nature, No. 4832, Jun. 9, 1962, 927-929) using an aggregometer (NKK Hema Tracer 1, PAT-4M, NKK Inc. Japan).
PRP was prepared from male Japanese white rabbits weighing 2.3-4.1 kg. Blood was drawn into syringes containing 3.8% sodium citrate (1/10 volume) and centrifuged at 1000 r.p.m. for 10 min. at room temperature. Platelet poor plasma (PPP) was obtained from the supernatant fraction of the residual blood by centrifugation at 3000 r.p.m. for 10 min. The aggregation (%) was calculated against the turbidity of PPP, which was designated as 100%. 1.2. In vitro anti-platelet test
A 200 μl volume of PRP was placed in the cuvette of the aggregometer and incubated at 37° C. To the cuvette was added 25 μl of 10% methanol solution in physiological saline as a solvent or 25 μl of test drug solution dissolved in the solvent in a predetermined concentration (μg/ml) indicated in Table 2, which was stirred and incubated. 5 min. after, platelet aggregation was induced by the addition of 25 μl of 10^-2 M arachidonic acid. Changes in the percentage of aggregation was recorded on a multirecorder (T626-DS, NKK Inc., Japan). 1-(4' -Methoxybenzoyl)-2-pyrrolidinone (aniracetam) was used as a control compound.
2. Result The percentage inhibition (I) of platelet aggregation by a test drug was calculated from the following equation: […]
in which A is the percentage maximum aggregation for addition of the drug and B is the percentage maximum aggregation for no addition of the drug.

For the compound `Cc1ccc(OC(=O)N2CCCC2=O)cc1` [Compound No. 7, 1-(4'-Methylphenoxycarbonyl)-2-pyrrolidinone], the inhibition at 10 µg/mL turned out to be 5.8%, the inhibition at 25 µg/mL came out at 31%, the inhibition at 50 µg/mL was found to be 70.6% and the inhibition at 100 µg/mL was 97.7%.
Take `COc1cccc(OC(=O)N2CCCC2=O)c1` [Compound No. 3, 1-(3'-Methoxyphenoxycarbonyl)-2-pyrrolidinone]: the inhibition at 50 µg/mL turned out to be 8.5% and the inhibition at 100 µg/mL turned out to be 28.6%.
Consider `COc1ccc(OC(=O)N2CCCC2=O)cc1` [Compound No. 4, 1-(4'-Methoxyphenoxycarbonyl)-2-pyrrolidinone], for which the inhibition at 10 µg/mL worked out at 51.1%, the inhibition at 25 µg/mL came to 72.5%, the inhibition at 50 µg/mL worked out at 95.5% and the inhibition at 100 µg/mL stood at 98.2%.
For `Cc1ccccc1OC(=O)N1CCCC1=O` [Compound No. 5, 1-(2'-Methylphenoxycarbonyl)-2-pyrrolidinone], the inhibition at 10 µg/mL turned out to be 5%, the inhibition at 25 µg/mL is 35.8%, the inhibition at 50 µg/mL was 50.6% and the inhibition at 100 µg/mL was 92.3%.
On to `COc1ccc(C(=O)N2CCCC2=O)cc1` [Aniracetam, 1-(4' -Methoxybenzoyl)-2-pyrrolidinone, reference compound], for which the inhibition at 50 µg/mL stood at 0.4% and the inhibition at 100 µg/mL was 4.1%.
For the compound `COc1ccccc1OC(=O)N1CCCC1=O` [Compound No. 2, 1-(2'-Methoxyphenoxycarbonyl)-2-pyrrolidinone], the inhibition at 10 µg/mL was found to be 40.9%, the inhibition at 25 µg/mL worked out at 69.8%, the inhibition at 50 µg/mL was determined as 81.6% and the inhibition at 100 µg/mL was determined as 96.2%.
In the case of `Cc1cccc(OC(=O)N2CCCC2=O)c1` [Compound No. 6, 1-(3'-Methylphenoxycarbonyl)-2-pyrrolidinone], the inhibition at 50 µg/mL is 4.7% and the inhibition at 100 µg/mL stood at 39.7%.
`COc1cccc(OC)c1OC(=O)N1CCCC1=O` [Compound No. 18, 1-(2',6'-Dimethoxyphenoxycarbonyl)-2-pyrrolidinone]: the inhibition at 10 µg/mL was 26%, the inhibition at 25 µg/mL came out at 64.8%, the inhibition at 50 µg/mL stood at 90.9% and the inhibition at 100 µg/mL came out at 96.4%.
